PMC10011747, “Targeting androgen receptor and the variants by an orally bioavailable Proteolysis Targeting Chimeras compound in castration resistant prostate cancer” (eBioMedicine, 2023)

Assays:
[1] = Metabolic stability in liver microsomes; assay type: in vitro ADME; details: pooled liver microsomes, pH 7.4, mouse CD-1 liver microsome 0.8 mg/mL, read-out: MLM stability T1/2
Experimental: The mouse CD-1 pooled liver microsome (Corning Product ID: 452701, Lot: 0010003) was used to test compound stability. The reaction was carried out in 100 mM, pH 7.4 phosphate buffer containing microsome (0.8 mg/mL), NADP^+ (1.3 mM), glucose-6-phosphate (3.3 mM), glucose-6-phosphate dehydrogenase (0.4 U/mL), magnesium chloride (3.3 mM) and the test article (1 μM) with 1% (v/v) final concentration of DMSO. The reaction was incubated at 37 °C with shaking. At 0, 10, 20, and 30 min time points, 20 μL of the reaction mixture was taken and quenched immediately with 120 μL acetonitrile. The quenched sample were centrifuged, and the supernatant was then analyzed by LC-MS/MS (ABI4000Q-TRAP). 1 μM warfarin and 1 μM verapamil with same reaction conditions was used as negative and positive control, respectively.

[2] = In vitro stability in plasma; assay type: in vitro ADME; details: mouse, BALB/c mice plasma, 37 °C, read-out: Plasma stability T1/2
Experimental: The in vitro stability of the PROTAC compounds was performed in BALB/C (BALB/cAnNCrlBltw) mice plasma. The reactions were initiated by adding 10 μM PROTAC compounds to 0.5 mL of pre-warmed plasma solution. The assays were performed in Thermomixer at 37 °C. During the incubation, 20 μL samples were taken at 0, 30, 60, 120, and 240 min time points, and added to 120 μL of acetonitrile to deproteinize the plasma. After 10 min of centrifugation at 14,000 rpm, the supernatants were collected for subsequent HPLC-UV analysis (Waters 1525 Binary and 2707 Autosampler).

VCaP cells = experiment: alamarBlue cell viability, VCaP; assay type: cell-based; details: Homo sapiens, 168 h, 7 days treatment, normal hormone condition
Experimental: (§1) Cells were seeded in triplicate in 96-well plates 1 day prior to drug treatment for all assays. For viability test and IC50 assessment, the alamarBlue™ Cell Viability Reagent (Thermo Fisher Scientific) was added to cells 7 days after PROTAC treatment, followed by fluorescence detection as the manufacturer instructed. The IC50 was calculated by dose-inhibition regression. For proliferation monitoring, 2, 4, 6 and 8 days after PROTAC treatment (day 0), viable cells were detected by MTT Cell Proliferation Kit I (Sigma–Aldrich) according to the manufacturer's instructions. Cellular caspase activity was measured by Caspase-Glo 3/7 Assay System (Promega) 1 or 2 days after the drug treatment.

LNCaP cells = experiment: alamarBlue cell viability, LNCaP; assay type: cell-based; details: Homo sapiens, 168 h, 7 days treatment, normal hormone condition
Experimental: as §1

AR NTD (221–320) = target: T1, AR NTD (221–320) (Homo sapiens, UniProt P10275); experiment: Affinity selection mass spectrometer (ASMS) binding assay; details: 100 nM compound with 100 nM GST-AR-NTD, 1 h 37 °C; percentage of input compound recovered
T1 construct: GST tagged AR-NTD protein (221–320) (Abcam ab157902); purchased Abcam ab157902; host or cells: wheat germ (datasheet)
T1 sequence (P10275 221-320): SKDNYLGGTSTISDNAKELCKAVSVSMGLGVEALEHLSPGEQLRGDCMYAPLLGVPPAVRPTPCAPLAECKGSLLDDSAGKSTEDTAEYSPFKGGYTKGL
Experimental: Affinity selection mass spectrometer (ASMS)[40] binding assay was employed for the screen and relative binding affinity assessment of AR NTD binding compounds. Briefly, GST tagged AR-NTD protein (221–320) (Abcam ab157902) at final concentration of 100 nM was incubated with 100 nM of individual candidate compounds in PBS for 1 h at 37 °C. The protein-compound mixture was filtered through 10K MWCO pore sized Nanosep centrifugal column (PALL Life science) with thorough wash steps to separate protein-bound and unbound compounds. The protein-bound compounds were subsequently extracted and analyzed by ABSCIEX 4000 QTRAP LC-ESI MS/MS (AB Sciex, Framingham, MA) coupled to an Agilent 1200 HPLC system. A Waters S XBridge RP18, 3.5 μm, 4.6 × 20 mm column was used as the stationary phase (Waters Corporation, Milford, MA, USA). Gradient elution was carried out using water with 0.1% formic acid (solvent A) and acetonitrile with 0.1% formic acid (solvent B) as a mobile phase. Positive ion polarity scanning was used in electrospray (ESI) mass-triggered fraction collection to monitor the target mass. Quantification of protein-bound compounds was determined against calibration curves established with drug standards. For relative binding affinity assessment, same procedure and condition was carried out for each compound without target protein incubated in the reaction as background controls. Relative binding affinity was calculated as percentage of input compound quantity after background value subtraction.

Row | SMILES | half-life at 1 μM [1] [h] | half-life at 10 μM [2] [h] | IC50 (VCaP cells) [µM] | IC50 (LNCaP cells) [µM] | ASMS relative binding (%) (AR NTD (221–320))
1 | Cc1ncsc1-c1ccc(CNC(=O)[C@@H]2C[C@H](O)CN2C(=O)[C@@H](NC(=O)COCCCCOc2ccc(C3CCN(C4=Nn5c(nnc5C(F)(F)F)CC4)CC3)cc2)C(C)(C)C)cc1 [ITRI-90, (2S,4S)-1-((S)-3,3-dimethyl-2-(2-(4-(4-(1-(3-(trifluoromethyl)-7,8-dihydro-[1,2,4]triazolo[4,3-b]pyridazin-6-yl)piperidin-4-yl)phenoxy)butoxy)acetamido)butanoyl)-4-hydroxy-N-(4-(4-methylthiazol-5-yl)benzyl)pyrrolidine-2-carboxamide] | > 0.5 | > 4 | 5.45 ± 1.74 | 6.59 ± 3.13 | 15.9
2 | Cc1ncsc1-c1ccc(CNC(=O)[C@@H]2C[C@H](O)CN2C(=O)[C@@H](NC(=O)COCCCCCCOc2ccc(C3CCN(C4=Nn5c(nnc5C(F)(F)F)CC4)CC3)cc2)C(C)(C)C)cc1 [ITRI-125, (2S,4S)-1-((S)-3,3-dimethyl-2-(2-(6-(4-(1-(3-(trifluoromethyl)-7,8-dihydro-[1,2,4]triazolo[4,3-b]pyridazin-6-yl)piperidin-4-yl)phenoxy)hexyloxy)acetamido)butanoyl)-4-hydroxy-N-(4-(4-methylthiazol-5-yl)benzyl)pyrrolidine-2-carboxamide] | > 0.5 | > 4 | 3.06 ± 0.936 | 6.36 ± 2.1 | 13.6
3 | O=C1CCC(N2Cc3c(NC(=O)COCCCCOc4ccc(C5CCN(C6=Nn7c(nnc7C(F)(F)F)CC6)CC5)cc4)cccc3C2=O)C(=O)N1 (stereo not shown) [ITRI-126, N-(2-(2,6-dioxopiperidin-3-yl)-1-oxoisoindolin-4-yl)-2-(4-(4-(1-(3-(trifluoromethyl)-7,8-dihydro-[1,2,4]triazolo[4,3-b]pyridazin-6-yl)piperidin-4-yl)phenoxy)butoxy)acetamide] |  |  | 0.448 ± 0.154 | 0.464 ± 0.093 | 20
